Measured values as given in patent US12722014B2, “Method of treating drug resistant hypertension and heart failure with preserved ejection fraction by combined drug treatment with baropacing and beta blockers” (BaroPace, Inc., priority 2020, dated 2026).

Tests used:
[1] = Published retrospective and prospective study of BaroPacing by BaroPace's clinical research team; assay type: in vivo, human; conditions: current treatment with the beta blocker
From the text: Based on the observation that pacemaker implant in patients with drug resistant hypertension (DRH) and heart failure with preserved ejection fraction (HFpEF) lowers blood pressure and improves clinical outcomes, BaroPace, Inc. is developing technology to treat drug resistant hypertension and (HFpEF) by regulating cardiac pacemakers in real time in response to blood pressure (BaroPacing™). […] The BaroPacing research model offers a now-proven cost efficient means of screening ISA drugs such as pindolol and acebutolol to test this hypothesis. If proven true, besides a new patentable indication, such results could lead to a treatment paradigm shift and clinical revitalization of ISA beta blockers.

[2] = Prospective study of BaroPacing (raising right atrial pacing rate) in 14 subjects with hypertension and dual chamber pacemakers; assay type: in vivo, human; conditions: 8 patients taking either Metoprolol or Carvedilol vs 6 subjects not taking any beta blockers (p<0.004 in the latter)
From the text: I have prospectively studied 14 subjects with hypertension and dual chamber pacemakers, 6 not taking any beta blockers, and 8 taking either metoprolol or carvedilol. […] PressurePacing or BaroPacing is defined to include the algorithmically controlled pacing methodologies and programmable pacemakers as disclosed in PCT/US19/59703; PCT/US20/025447; PCT/US21/42622; and US Provisional filing 63/123,951, each and all incorporated herein by reference.

Row | SMILES | beneficial blood pressure lowering effects of BaroPacing [1] | improvement in New York Heart Association Class seen in HFpEF with BaroPacing [1] | significant lowering of systolic blood pressure (>10 mmHg) by BaroPacing [2]
1 | COCCc1ccc(OCC(O)CNC(C)C)cc1 (stereo not drawn) [Metoprolol, metoprolol] | substantially blunts | substantially blunts | lost
2 | COc1ccccc1OCCNCC(O)COc1cccc2[nH]c3ccccc3c12 (stereo not drawn) [Carvedilol] | substantially blunts | substantially blunts | lost
